Here are results for 24 compounds from US20250270209A1 (INTERLINE THERAPEUTICS, INC., priority 2022, published 2025).

The IC50 is the concentration that inhibits the measured activity by half.

Molecules are shown by their SMILES.

Assay [1] deals with LRRK2 wild type enzyme (Homo sapiens, UniProt Q5S007). Put plainly: Biochemical Assay: LRRK2 TR-FRET (LanthaScreen) kinase assay with LRRKtide substrate. Conditions: LRRK2 Inhibition, Table 8. In short, it runs like this: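 TR-FRET detection (Tb-labelled phospho-LRRKtide antibody, EDTA stop, 30 min) followed a 120 min, 23 °C reaction of 3 nM wild-type human LRRK2 with LRRKtide (400 nM) and ATP (25 μM) in Tris pH 8.0. Compounds: 11-point 3-fold series from 10 μM, 15 min enzyme preincubation.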

For assay [2], the target named is T1, wild type LRRK2 overexpressed in recombinant HEK-293T cells (Homo sapiens, UniProt Q5S007).
T1 construct: host or cells: HEK293T (transient transfection with pCMV-LRRK2 WT plasmid)
In words: pS935 LRRK2 Cell Assay (HTRF, phospho-LRRK2 Ser935). The assay is classed as cell-based. Conditions: LRRK2 Inhibition, Table 8, 2 hours compound incubation. In short, it runs like this: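 Phospho-Ser935 LRRK2 measured by two-antibody HTRF (Eu-cryptate donor, d2 acceptor; 665/615 nm ratio) after overnight detection at 23° C. Before lysis, transiently LRRK2-transfected HEK-293T cells were exposed 2 h at 37° C to a 9-point, 3-fold series from 10 μM, with DMSO at 0.2%.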
Background: In TR-FRET formats the signal depends on donor and acceptor labels being close together.

Chain of LRRK2 wild type enzyme (Q5S007 whole entry): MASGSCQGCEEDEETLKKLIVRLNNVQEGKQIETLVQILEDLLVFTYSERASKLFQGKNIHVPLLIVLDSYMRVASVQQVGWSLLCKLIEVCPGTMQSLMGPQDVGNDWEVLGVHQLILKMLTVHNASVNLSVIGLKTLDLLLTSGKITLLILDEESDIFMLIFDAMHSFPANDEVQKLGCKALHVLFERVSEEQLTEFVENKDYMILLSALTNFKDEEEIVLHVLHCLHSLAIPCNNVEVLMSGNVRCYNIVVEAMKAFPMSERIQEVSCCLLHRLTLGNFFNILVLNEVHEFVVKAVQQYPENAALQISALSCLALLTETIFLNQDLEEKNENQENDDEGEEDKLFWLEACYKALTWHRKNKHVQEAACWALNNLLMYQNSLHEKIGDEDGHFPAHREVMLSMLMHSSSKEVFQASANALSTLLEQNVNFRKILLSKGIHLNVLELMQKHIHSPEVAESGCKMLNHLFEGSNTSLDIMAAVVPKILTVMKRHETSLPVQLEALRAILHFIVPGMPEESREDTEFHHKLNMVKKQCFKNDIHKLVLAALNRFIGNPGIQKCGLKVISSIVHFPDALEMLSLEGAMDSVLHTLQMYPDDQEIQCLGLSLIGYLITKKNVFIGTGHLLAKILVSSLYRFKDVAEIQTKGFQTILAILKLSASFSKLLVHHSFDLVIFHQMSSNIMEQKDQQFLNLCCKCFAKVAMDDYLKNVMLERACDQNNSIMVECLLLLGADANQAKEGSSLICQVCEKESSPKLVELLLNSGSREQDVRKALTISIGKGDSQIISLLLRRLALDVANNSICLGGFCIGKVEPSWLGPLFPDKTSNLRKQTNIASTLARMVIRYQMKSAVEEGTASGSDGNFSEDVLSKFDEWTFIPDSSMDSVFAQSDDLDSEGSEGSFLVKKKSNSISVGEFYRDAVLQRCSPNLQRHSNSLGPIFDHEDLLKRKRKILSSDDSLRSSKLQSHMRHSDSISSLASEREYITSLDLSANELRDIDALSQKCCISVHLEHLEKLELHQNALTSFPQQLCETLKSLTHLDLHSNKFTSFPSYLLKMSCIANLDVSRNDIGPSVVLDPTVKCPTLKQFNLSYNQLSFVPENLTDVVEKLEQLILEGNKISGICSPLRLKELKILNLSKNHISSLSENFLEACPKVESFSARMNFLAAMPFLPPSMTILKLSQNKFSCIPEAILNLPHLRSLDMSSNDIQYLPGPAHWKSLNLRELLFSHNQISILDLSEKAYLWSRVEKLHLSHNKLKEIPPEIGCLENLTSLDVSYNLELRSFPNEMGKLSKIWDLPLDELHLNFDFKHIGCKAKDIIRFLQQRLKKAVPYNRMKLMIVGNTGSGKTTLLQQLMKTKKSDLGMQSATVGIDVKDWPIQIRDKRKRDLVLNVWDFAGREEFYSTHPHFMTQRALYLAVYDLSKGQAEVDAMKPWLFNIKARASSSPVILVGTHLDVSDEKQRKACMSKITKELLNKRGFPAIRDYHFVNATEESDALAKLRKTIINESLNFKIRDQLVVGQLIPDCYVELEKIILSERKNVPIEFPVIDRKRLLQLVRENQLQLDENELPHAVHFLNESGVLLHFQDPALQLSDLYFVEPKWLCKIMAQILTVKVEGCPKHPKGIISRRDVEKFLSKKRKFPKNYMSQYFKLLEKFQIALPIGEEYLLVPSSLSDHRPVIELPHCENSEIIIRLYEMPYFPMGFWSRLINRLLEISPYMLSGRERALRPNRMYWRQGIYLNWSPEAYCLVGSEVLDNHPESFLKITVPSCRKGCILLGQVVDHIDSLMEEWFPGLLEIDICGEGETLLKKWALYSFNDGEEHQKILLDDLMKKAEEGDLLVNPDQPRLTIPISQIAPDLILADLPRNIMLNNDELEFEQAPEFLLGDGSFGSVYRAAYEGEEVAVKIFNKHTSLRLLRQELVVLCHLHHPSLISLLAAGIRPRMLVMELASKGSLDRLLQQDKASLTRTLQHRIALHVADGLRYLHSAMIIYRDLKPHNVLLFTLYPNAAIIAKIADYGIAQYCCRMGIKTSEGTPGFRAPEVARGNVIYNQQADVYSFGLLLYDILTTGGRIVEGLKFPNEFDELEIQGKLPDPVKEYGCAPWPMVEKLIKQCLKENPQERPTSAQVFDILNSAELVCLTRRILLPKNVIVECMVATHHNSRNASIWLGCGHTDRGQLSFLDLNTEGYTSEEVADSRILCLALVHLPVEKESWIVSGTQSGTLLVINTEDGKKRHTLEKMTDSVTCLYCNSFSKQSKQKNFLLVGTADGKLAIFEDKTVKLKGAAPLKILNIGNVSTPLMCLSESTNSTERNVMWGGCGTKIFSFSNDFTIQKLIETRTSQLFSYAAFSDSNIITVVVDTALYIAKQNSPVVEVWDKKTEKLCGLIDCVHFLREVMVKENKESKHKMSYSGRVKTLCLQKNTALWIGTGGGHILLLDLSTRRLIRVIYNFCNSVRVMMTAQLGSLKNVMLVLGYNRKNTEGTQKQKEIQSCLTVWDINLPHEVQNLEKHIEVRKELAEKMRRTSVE
T1 sequence (Q5S007 whole entry): as above

In the case of `Cc1nc2ccc(C#N)cc2c2c1nc(CC(=O)NCC1CC1)n2[C@@H]1CCO[C@H](C)C1` [Compound 364, N-cyclopropylmethyl{3-[(2R,4R)-2-methyltetrahydro-2H-pyran-4-yl]-12-cyano-7-methyl-3,5,8-triazatricyclo[7.4.0.0^2,6]trideca-1(9),2(6),4,7,10,12-hexaen-4-yl}acetamide], the IC50 in assay [1] stood at 186 nM; in assay [2] it was 6770 nM.
On the same counts, the results for `C[C@@H]1C[C@H](n2c(C3CC(=O)N([C@@H]4CCCOC4)C3)nc3cnc4ccc(C#N)cc4c32)CCO1` (stereo partly drawn) [Compound 51, 1-[(2R,4R)-2-methyloxan-4-yl]-2-{1-[(3R)-oxan-3-yl]-5-oxopyrrolidin-3-yl}-1H-imidazo[4,5-c]quinoline-8-carbonitrile] are 3.03 nM and 312 nM.
On the same counts, the results for `C[C@@H]1C[C@H](n2c(CC(=O)Nc3cnn(C)c3)nc3cnc4ccc(C#N)cc4c32)CCO1` [Compound 88, 2-{8-cyano-1-[(2R,4R)-2-methyloxan-4-yl]-1H-imidazo[4,5-c]quinolin-2-yl}-N-(1-methyl-1H-pyrazol-4-yl)acetamide] are 0.457 nM and 24.4 nM.
On the same counts, the results for `C[C@@H]1C[C@H](n2c(CC(=O)Nc3ncc(C(F)(F)F)cn3)nc3cnc4ccc(C#N)cc4c32)CCO1` [Compound 355, N-[5-(trifluoromethyl)-2-pyrimidinyl]{3-[(2R,4R)-2-methyltetrahydro-2H-pyran-4-yl]-12-cyano-3,5,8-triazatricyclo[7.4.0.0^2,6]trideca-1(9),2(6),4,7,10,12-hexaen-4-yl}acetamide] are 0.491 nM and 3.92 nM.
On to `C[C@@H]1C[C@H](n2c(CC(=O)Nc3ccc(Cl)nc3)nc3cnc4ccc(C#N)cc4c32)CCO1` [Compound 297, N-(6-chloro-3-pyridyl){3-[(2R,4R)-2-methyltetrahydro-2H-pyran-4-yl]-12-cyano-3,5,8-triazatricyclo[7.4.0.0^2,6]trideca-1,4,6,8,10,12-hexaen-4-yl}acetamide], for which the IC50 in assay [1] was 0.225 nM; in assay [2], 3.99 nM.
In the same order, the values of `Cc1nc(C)c(NC(=O)Cc2nc3cnc4ccc(Cl)cc4c3n2[C@@H]2CCO[C@H](C)C2)c(C)n1` [Compound 217, N-(2,4,6-trimethyl-5-pyrimidinyl){3-[(2R,4R)-2-methyltetrahydro-2H-pyran-4-yl]-12-chloro-3,5,8-triazatricyclo[7.4.0.0^2,6]trideca-1,4,6,8,10,12-hexaen-4-yl}acetamide] are 0.294 nM and 5.53 nM.
`Cc1nn(C)cc1NC(=O)Cc1nc2cnc3ccc(C#N)cc3c2n1[C@@H]1CCO[C@H](C)C1` [Compound 231, N-(1-methyl-3-methyl-4-pyrazolyl){3-[(2R,4R)-2-methyltetrahydro-2H-pyran-4-yl]-12-cyano-3,5,8-triazatricyclo[7.4.0.0^2,6]trideca-1,4,6,8,10,12-hexaen-4-yl}acetamide]: the half-maximal inhibitory concentration (IC50) was 0.621 nM in assay [1] and 13.6 nM in assay [2].
In the same order, the values of `C[C@@H]1C[C@H](n2c(C3CC(=O)N(C)C3)nc3cnc4ccc(C#N)cc4c32)CCO1` (mixture of isomers) [Compound 53, 2-[(3RS)-1-methyl-5-oxopyrrolidin-3-yl]-1-[(2R,4R)-2-methyloxan-4-yl]-1H-imidazo[4,5-c]quinoline-8-carbonitrile] are 3.16 nM and 666 nM.
Take `Cc1cncc(NC(=O)Cc2nc3cnc4ccc(C#N)cc4c3n2[C@@H]2CCO[C@H](C)C2)c1` [Compound 269, N-(5-methyl-3-pyridyl){3-[(2R,4R)-2-methyltetrahydro-2H-pyran-4-yl]-12-cyano-3,5,8-triazatricyclo[7.4.0.0^2,6]trideca-1,4,6,8,10,12-hexaen-4-yl}acetamide]: the 50% inhibitory concentration (IC50) in assay [1] was 0.379 nM; in assay [2], 5.17 nM.
On the same counts, the results for `COc1cc(C)ncc1NC(=O)Cc1nc2cnc3ccc(C#N)cc3c2n1[C@@H]1CCO[C@H](C)C1` [Compound 226, N-(4-methoxy-6-methyl-3-pyridyl){3-[(2R,4R)-2-methyltetrahydro-2H-pyran-4-yl]-12-cyano-3,5,8-triazatricyclo[7.4.0.0^2,6]trideca-1,4,6,8,10,12-hexaen-4-yl}acetamide] are 0.461 nM and 5.44 nM.
Take `C[C@@H]1C[C@H](n2c(CC(=O)NC3CC3)nc3cnc4ccc(C(F)(F)F)cc4c32)CCO1` [Compound 327, N-cyclopropyl{3-[(2R,4R)-2-methyltetrahydro-2H-pyran-4-yl]-12-(trifluoromethyl)-3,5,8-triazatricyclo[7.4.0.0^2,6]trideca-1,4,6,8,10,12-hexaen-4-yl}acetamide]: the IC50 in assay [1] turned out to be 1.41 nM; in assay [2], 43.1 nM.
On the same counts, the results for `C[C@@H]1C[C@H](n2c(C3CC(=O)N(c4cnn(CCO)c4)C3)nc3cnc4ccc(C#N)cc4c32)CCO1` (stereo partly drawn) [Compound 123, 2-{1-[1-(2-hydroxyethyl)-1H-pyrazol-4-yl]-5-oxopyrrolidin-3-yl}-1-[(2R,4R)-2-methyloxan-4-yl]-1H-imidazo[4,5-c]quinoline-8-carbonitrile] are 1.41 nM and 4050 nM.
In the same order, the values of `C[C@@H]1C[C@H](n2c(C3CCN(CC4CC4)C(=O)C3)nc3cnc4ccc(C#N)cc4c32)CCO1` (stereo partly drawn) [Compound 49, 2-[1-(cyclopropylmethyl)-2-oxopiperidin-4-yl]-1-[(2R,4R)-2-methyloxan-4-yl]-1H-imidazo[4,5-c]quinoline-8-carbonitrile] are 15.3 nM and 871 nM.
In the same order, the values of `CCNC(=O)Cc1nc2cnc3ccc(C#N)cc3c2n1[C@@H]1CCO[C@H](C)C1` [Compound 6, 2-{8-cyano-1-[(2R,4R)-2-methyloxan-4-yl]-1H-imidazo[4,5-c]quinolin-2-yl}-N-ethylacetamide] are 0.58 nM and 48.7 nM.
Take `C[C@@H]1C[C@H](n2c(C3CCN(C(=O)c4cnn(C)c4)CC3)nc3cnc4ccc(C#N)cc4c32)CCO1` [Compound 118, 2-[1-(1-methyl-1H-pyrazole-4-carbonyl)piperidin-4-yl]-1-[(2R,4R)-2-methyloxan-4-yl]-1H-imidazo[4,5-c]quinoline-8-carbonitrile]: the 50% inhibitory concentration (IC50) in assay [1] is 0.855 nM; in assay [2], 330 nM.
On the same counts, the results for `C[C@@H]1C[C@H](n2c(CC(=O)NC3CC3(F)F)nc3cnc4ccc(C#N)cc4c32)CCO1` (stereo partly drawn) [Compound 288, N-2,2-difluorocyclopropyl{3-[(2R,4R)-2-methyltetrahydro-2H-pyran-4-yl]-12-cyano-3,5,8-triazatricyclo[7.4.0.0^2,6]trideca-1,4,6,8,10,12-hexaen-4-yl}acetamide] are 0.642 nM and 39 nM.
Turning to `C[C@@H]1C[C@H](n2c(CN)nc3cnc4ccc(C#N)cc4c32)CCO1` [Compound 32, 2-(aminomethyl)-1-[(2R,4R)-2-methyloxan-4-yl]-1H-imidazo[4,5-c]quinoline-8-carbonitrile], the IC50 in assay [1] came to 5.55 nM; in assay [2] it was 425 nM.
Take `CC1CC(n2c(CC3CNC3)nc3cnc4ccc(C#N)cc4c32)CCO1` (stereo not drawn) [Compound 70, 2-[(azetidin-3-yl)methyl]-1-(2-methyloxan-4-yl)-1H-imidazo[4,5-c]quinoline-8-carbonitrile]: the IC50 in assay [1] stood at 9.07 nM; in assay [2] it was 3680 nM.
Consider `C[C@@H]1C[C@H](n2c(CC(=O)Nc3ccn(C)n3)nc3cnc4ccc(C#N)cc4c32)CCO1` [Compound 188, 2-{8-cyano-1-[(2R,4R)-2-methyloxan-4-yl]-1H-imidazo[4,5-c]quinolin-2-yl}-N-(1-methyl-1H-pyrazol-3-yl)acetamide], for which the 50% inhibitory concentration (IC50) in assay [1] came out at 0.321 nM; in assay [2] it was 7.58 nM.
In the same order, the values of `C[C@@H]1C[C@H](n2c(CC(=O)Nc3ccc(=O)n(C)c3)nc3cnc4ccc(Cl)cc4c32)CCO1` [Compound 219, N-(1-methyl-6-oxo-1,6-dihydro-3-pyridyl){3-[(2R,4R)-2-methyltetrahydro-2H-pyran-4-yl]-12-chloro-3,5,8-triazatricyclo[7.4.0.0^2,6]trideca-1,4,6,8,10,12-hexaen-4-yl}acetamide] are 0.232 nM and 15.8 nM.
In the same order, the values of `C[C@@H]1C[C@H](n2c(CN3CCCS3(=O)=O)nc3cnc4ccc(C#N)cc4c32)CCO1` [Compound 75, 2-[(1,1-dioxo-126,2-thiazolidin-2-yl)methyl]-1-[(2R,4R)-2-methyloxan-4-yl]-1H-imidazo[4,5-c]quinoline-8-carbonitrile] are 11.1 nM and 590 nM.
Turning to `C[C@@H]1C[C@H](n2c(CC(=O)NC3(C)CC3)nc3cnc4ccc(C#N)cc4c32)CCO1` [Compound 328, N-1-methylcyclopropyl{3-[(2R,4R)-2-methyltetrahydro-2H-pyran-4-yl]-12-cyano-3,5,8-triazatricyclo[7.4.0.0^2,6]trideca-1(9),2(6),4,7,10,12-hexaen-4-yl}acetamide], the IC50 was 1.86 nM in assay [1] and 54.7 nM in assay [2].
`C[C@@H]1C[C@H](n2c(CC(=O)N3CCCC3)nc3cnc4ccc(C#N)cc4c32)CCO1` [Compound 85, 1-[(2R,4R)-2-methyloxan-4-yl]-2-[2-oxo-2-(pyrrolidin-1-yl)ethyl]-1H-imidazo[4,5-c]quinoline-8-carbonitrile]: the concentration for half-maximal inhibition (IC50) in assay [1] stood at 5.11 nM; in assay [2], 416 nM.
In the same order, the values of `C[C@@H]1C[C@H](n2c(CC(=O)Nc3cccnc3C#N)nc3cnc4ccc(C#N)cc4c32)CCO1` [Compound 272, N-(2-cyano-3-pyridyl){3-[(2R,4R)-2-methyltetrahydro-2H-pyran-4-yl]-12-cyano-3,5,8-triazatricyclo[7.4.0.0^2,6]trideca-1,4,6,8,10,12-hexaen-4-yl}acetamide] are 0.549 nM and 12.5 nM.
